Patent US10213482B2, “Methods of treating chronic inflammatory diseases” (Centre National de la Recherche Scientifique, priority 2014, dated 2019)
Square brackets hold non-standard residues; d marks the D form. Ends that are not written are not given here. Peptide text beside a SMILES is read from it. Met(O) = CS(=O)CC[C@H](N)C(=O)O; pS = N[C@@H](COP(=O)(O)O)C(=O)O

Experiments:
Balb/c mice = test: 15-day ovalbumin-induced airway hypereosinophilia model, BAL cell counts; type: in vivo, mouse; conditions: i.n. or i.v., control mice challenged with saline; no pro-inflammatory effect
Method: The anti-inflammatory effect of the P140 phosphopeptide was evaluated when administered locally (intranasally) or systemically (intravenously) in a 15-day model of hypereosinophilic airway inflammation in mice.
The P140 phosphopeptide was solubilized in sterile water (Braun) and 10× concentrate sterile saline was added to adjust osmolarity to 300 mosm. Osmolarity was controlled with a micro osmometer (Loser, type 15) and validated (302 mosm).
The P140 phosphopeptide was used in vivo at the dose of 4 mg/kg by intranasal (i.n.) and intravenous (i.v.) routes. Control animals received equivalent volumes (1 ml/kg for i.n. and 2 ml/kg for i.v.) of saline (Table 6).
Nine-week-old male Balb/c mice were sensitized by intraperitoneal (i.p.) injections of a mixture containing 50 μg OVA (Sigma-Aldrich) and 2 mg alum (Sigma-Aldrich) in 0.1 ml saline. Mice were challenged by i.n. administration of 25 μl of OVA on day 5, then 25 μl of OVA and/or saline on day 12, 13 and 14. […]
BAL was performed twenty-four hours after LPS challenge as described (Daubeuf, F. and Frossard, N. 2012. Performing Bronchoalveolar Lavage in the Mouse. Curr Protoc Mouse Biol 2:167-175). […] The cell pellet was suspended in 500 μl of 0.9% NaCl and used for total cell counts evaluated on a Muse® Cell Analyser. Differential cell counts were assessed by flow cytometry (LSRII® cytometer, BD Bioscience). […]

[1] = Stability of the peptides at 37° C. in 10% mannitol (HPLC peak area); type: physicochemical
Method: The stability of the peptide SEQ ID NO: 1 in which the serine at position 10 is phosphorylated and the methionine at position 4 is oxydized (P140(MO)), and the peptide SEQ ID NO: 1 in which the serine at position 10 is phosphorylated (P140) was measured at 37° C., in a solution of 10% (v/v) mannitol. For each peptide, 3 concentrations have been tested: 200, 100 and 50 μg/mL.
At the indicated time, the integrity of P140 and P140(MO) peptides was measured in saline by high-performance liquid chromatography from the area of the peak corresponding to the intact peptide.
Stability is measured by using the HPLC peak surface.

MRL/lpr mice [2] = test: Proteinuria analysis in MRL/lpr mice (Albustix); type: in vivo, mouse; conditions: compared to the untreated mice
Method: Proteinuria of the above mice was measured in fresh urine using Albustix (Bayer Diagnostics) and was semi-quantitatively estimated according to a […] recommended by the manufacturer (no proteinuria=0; traces=1; 1+=2; 2+=3; 3+=4; 4+=5).
Statistical tests were performed using GraphPad Prism version 5.0. The two-way ANOVA test was used to analyze statistical significance of proteinuria differences between control and peptide-treated groups of mice. Survival of control and P140 analogue-treated female MRL/lpr mice was analyzed by the Kaplan-Meier method, and the significance of differences was determined by the log-rank test. For the other variables, statistical significance was assessed using the Student's t-test. p values less than 0.05 were considered significant.

MRL/lpr mice [3] = test: Cellularity analysis of peripheral blood in MRL/lpr mice; type: in vivo, mouse; conditions: 100 μg/100 μL, 5 days after unique injection
Method: MRL/lpr mice were injected with 100 μg/100 μL of P140 or P140(MO) and cellularity (preipheral blood) was studied 5 days after this unique injection. The count includes all the leucocytes. In view of the low number of tested mice, a non parametric statistical test has been realised Mann-Whitney).

Recombinant bovine HSC70 = biological target: T1, Recombinant bovine HSC70 (Bos taurus, UniProt P19120); test: BIAcore binding of P140 peptides to HSC70
T1 construct: purchased Stressgen
Method: BIAcore 3000 system (Biacore AB) was used to evaluate the binding of P140 peptides to HSC70 protein (Page et al., 2009, and 2011). Sensor chip CMS, surfactant P20, amine coupling kit containing N-hydroxysuccinimide (NHS) and N-ethyl-N′-dimethylaminopropyl carbodiimide (EDC), 2-(2-pyridinyldithio)ethaneamine (PDEA) and ethanolamine were from Biacore AB. Biosensor assays were performed with HBS-EP buffer as running buffer (10 mM HEPES, 150 mM NaCl, 3 mM EDTA, 0.005% surfactant P20, pH 7.4). The compounds were diluted in the running buffer. The sensor chip surface was regenerated after each experiment by injecting 10 μL of 10 mM HCl. Recombinant bovine HSC70 (Stressgen) was immobilized on flow cells of a CMS sensor chip through its thiol groups using 35 μL PDEA in 50 mM borate buffer, pH 8.3 on the NHS/EDC-activated matrix. Then, 35 μL of HSC70 (100 μg/mL in formate buffer, pH 4.3) were injected until a response of 13,000 response units (RU) corresponding to 13 ng/mm^2 of HSC70 was immobilized. Twenty μL of a 50 mM cysteine/1 M NaCl solution was used to saturate unoccupied sites on the chip. The direct binding measurement of P140 peptides to HSC70 was carried out at 25° C. with a constant flow rate of 20 μL/min. […] The kinetic parameters were calculated using the BIAeval 3.1 software on a personal computer. […]

mice = conditions: Monneaux et al., 2003; cited from earlier work

T1 sequence (P19120 whole entry): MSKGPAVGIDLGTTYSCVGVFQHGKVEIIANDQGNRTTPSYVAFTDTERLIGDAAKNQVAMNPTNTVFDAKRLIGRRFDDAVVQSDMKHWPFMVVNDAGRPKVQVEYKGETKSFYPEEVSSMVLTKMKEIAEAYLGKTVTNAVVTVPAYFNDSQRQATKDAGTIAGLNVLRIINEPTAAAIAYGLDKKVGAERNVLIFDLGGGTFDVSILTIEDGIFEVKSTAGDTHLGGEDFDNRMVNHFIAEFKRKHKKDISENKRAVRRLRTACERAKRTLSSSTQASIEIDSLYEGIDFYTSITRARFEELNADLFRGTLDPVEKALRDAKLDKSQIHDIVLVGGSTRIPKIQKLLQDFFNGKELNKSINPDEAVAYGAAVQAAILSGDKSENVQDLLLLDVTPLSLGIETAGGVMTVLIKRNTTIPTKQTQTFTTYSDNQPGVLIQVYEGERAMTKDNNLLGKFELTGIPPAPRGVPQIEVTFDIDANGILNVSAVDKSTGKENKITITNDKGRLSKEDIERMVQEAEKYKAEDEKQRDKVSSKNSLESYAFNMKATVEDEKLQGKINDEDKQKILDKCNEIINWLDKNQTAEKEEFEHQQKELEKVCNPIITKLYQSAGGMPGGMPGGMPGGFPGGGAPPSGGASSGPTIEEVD

Compound | Number of cells recovered in BAL fluid as compared to vehicle (Balb/c mice) | Stability (%) Linear equation: coefficient of x (days) ([1]; 50 μg/mL) | Stability (%) Linear equation: constant term ([1]; 50 μg/mL) | Stability (%) Linear equation: coefficient of x (days) ([1]; 100 μg/mL) | Stability (%) Linear equation: constant term ([1]; 100 μg/mL) | Stability (%) Linear equation: coefficient of x (days) ([1]; 200 μg/mL) | Stability (%) Linear equation: constant term ([1]; 200 μg/mL) | Proteinuria score over time (MRL/lpr mice [2]) | Peripheral hypercellularity (leucocytes in blood) (MRL/lpr mice [3]) | Affinity for HSC70 protein, comparison of oxidized and non-oxidized peptide (Recombinant bovine HSC70) | Protection against disease development (mice)
CC[C@H](C)[C@H](NC(=O)[C@H](Cc1ccccc1)NC(=O)[C@H](C)NC(=O)[C@H](Cc1ccc(O)cc1)NC(=O)CNC(=O)[C@H](CCCNC(=N)N)NC(=O)[C@@H]1CCCN1C(=O)[C@H](CCCCN)NC(=O)CNC(=O)[C@H](COP(=O)(O)O)NC(=O)[C@H](CCCNC(=N)N)NC(=O)[C@H](CCCCN)NC(=O)[C@H](CO)NC(=O)[C@H](Cc1ccc(O)cc1)NC(=O)[C@@H](NC(=O)[C@H](CCSC)NC(=O)[C@H](Cc1c[nH]cn1)NC(=O)[C@@H](NC(=O)[C@@H](N)CCCNC(=N)N)[C@@H](C)CC)C(C)C)C(=O)N[C@@H](CCC(=O)O)C(=O)N[C@@H](Cc1ccc(O)cc1)C(=O)O [Compound P140] (H-RIHMVYSKR[pS]GKPRGYAFIEY-OH) | little effect per se | y = −0.099x + | 98.299 | y = −0.0612x + | 99.25 | y = −0.0238x + | 99.535 |  |  |  | 
CC[C@H](C)[C@H](NC(=O)[C@H](Cc1ccccc1)NC(=O)[C@H](C)NC(=O)[C@H](Cc1ccc(O)cc1)NC(=O)CNC(=O)[C@H](CCCNC(=N)N)NC(=O)[C@@H]1CCCN1C(=O)[C@H](CCCCN)NC(=O)CNC(=O)[C@H](COP(=O)(O)O)NC(=O)[C@H](CCCNC(=N)N)NC(=O)[C@H](CCCCN)NC(=O)[C@H](CO)NC(=O)[C@H](Cc1ccc(O)cc1)NC(=O)[C@@H](NC(=O)[C@H](CC[S+](C)[O-])NC(=O)[C@H](Cc1c[nH]cn1)NC(=O)[C@@H](NC(=O)[C@@H](N)CCCNC(=N)N)[C@@H](C)CC)C(C)C)C(=O)N[C@@H](CCC(=O)O)C(=O)N[C@@H](Cc1ccc(O)cc1)C(=O)O (stereo partly shown) [P140(MO), RIHM(O)VYSKRS(PO3H2)GKPRGYAFIEY] (H-RIH[Met(O)]VYSKR[pS]GKPRGYAFIEY-OH) |  | y = −0.0064x + | 99.677 | y = −0.0064x + | 100.11 |  | y = 100 | less important and appears lately | decrease peripheral hypercellularity | not statistically different | 
non-phosphorylated peptide: non-phosphorylated form of P140, not protective against disease development in mice (RIHMVYSKRSGKPRGYAFIEY; not fully specified; UniProt P08621 131-151, looked up, fragment) |  |  |  |  |  |  |  |  |  |  | not protective
